Data as given in PubChem BioAssay AID743162 (Broad Institute, 2013).
Calls of active or inactive are those of the source. No rule for the calls is given here.

Test system: Mycobacterium tuberculosis replicating, CFU count, imaging
Test: growth inhibition of replicating M. tuberculosis, dose response, CFU by imaging, dry powder, 7108-01 (AID 743162)
Settings: stronger effect = lower value

SMILES	CFU count (CFU at 10 uM, at 10 µM)	CFU count (at 64 µM)
COC(=O)C(C)Oc1ccc2cc(-c3ccccc3)c(=O)oc2c1 (stereo not drawn)	2.01e+09	1e+09 (inactive)
COc1ccc(CCNc2cc(-c3ccccc3)nc3ncnn23)cc1	1.18e+09	4.3e+08 (inactive)
COc1ccc(CNC(=O)Nc2ncc([N+](=O)[O-])s2)cc1	1.24e+09	220000
CCOc1ccc(OC(=O)c2ccc3c(=O)n4c(nc3c2)CCC4)cc1	1.36e+09	1e+09 (inactive)
c1ccc(-c2n[nH]c(-c3ccccn3)n2)nc1	1.06e+09	1.3e+09 (inactive)
CCOC(=O)c1cc(COc2c(Cl)cccc2Cl)on1	1.85e+09	1.7e+09 (inactive)
Cn1c(NC(=O)c2ccccc2)nc2ccccc21	1.98e+09	0
CCC(C)n1nnc2c(=O)oc3ccccc3c21 (stereo not drawn)	8.38e+08	6.7e+08 (inactive)
CSc1nsc(SCc2ccc(C(=O)Nc3cccc(C)c3)cc2)n1	-1.9e+09	1.31e+06
